The structures appear in SMILES notation.

The target in experiment [1] is T1, phospho-S338 CRAF (Homo sapiens, UniProt P04049).
T1 construct: phospho-S338 CRAF in orthotopic brain tumor xenografts untreated or treated systemically with KG5; from tissue; host or cells: orthotopic U-87 glioblastoma xenografts in the brain of nude mice
Put plainly: Phospho-S338 CRAF staining in orthotopic brain tumor xenografts. It counts as in vivo, mice. The settings on record: systemic KG5 50 mg/Kg, 3 days. The method, then:
FIG. 41. Phospho-5338 CRAF is highly expressed in tumors and can be blocked by an allosteric RAF inhibitor: FIG. 41(a) Immunohistochemical staining of phospho-S338 CRAF in normal human brain and human glioblastoma tissues. Scale bar, 100 μm. FIG. 41(b) Immunohistochemical staining of phospho-S338 CRAF in orthotopic brain tumor xenografts untreated or treated systemically with KG5 (50 mg/Kg) for 3 days. Scale bar, 50 p.m. FIG. 42. Phospho-5338 CRAF promotes mitosis: FIG. 42(a) Quantification of WT and CRAF−/− cells in the G1, S and G2/M phases of the cell cycle. Data are representative of three independent experiments. […] Cells in G2/M were quantified by flow cytometry. […] FIG. 42(d) Cells at pro-metaphase were quantified using confocal microscopy. […] FIG. 42(e) HCT-116 cells were transfected with control or CRAF siRNAs and cells in G2/M were quantified by flow cytometry. […] Lysates of these cells were analyzed for CRAF expression by immunoblotting (inset). […] Quantification of cells in G2/M was performed by flow cytometry. […]
Tumors were generated by injection of RFP-labeled U-87 human glioblastoma cells (10^5 tumorcells in 2 μl of sterile PBS) into the brain of 6-8 week old female nude mice. […] Brains were harvested at day 15 and fluorescence images recorded using the IVIS-200™ imaging system (Xenogen Corp., Hopkinton, Mass.). […]

Experiment [2] deals with Plk1. Put plainly: Plk1 activity in tumor cells arrested in pro-metaphase. Particulars: compared to cells arrested with nocodazole or paclitaxel. It counts as cell-based, human. From the text:
FIG. 46. CRAF regulates Plk1 activity and localization. FIG. 46(a) Plk1 kinase activity assay performed in WT and CRAF−/− MEFs. Error bars represent s.d. (n=3); * two tailed p value=0.029 using Mann Whitney U test. FIG. 46(b) Immunoblot analysis of XPA-1 cells asynchronous or arrested in mitosis by treatment with KG5, nocodazole or paclitaxel (referred to as Ncdzl and Ptxl respectively). pPlk1 refers to phospho-T210 Plk1 and pHH3 refers to phospho-Histone H3. Data are representative of three independent experiments. FIG. 46(c) Plk1 kinase activity assay performed in HCT-116 cells treated with nocodazole or nocodazole and KG5. Error bars represent s.d. ([…]); * two tailed p value=0.002 using Mann Whitney U test. FIG. 46(d) Immunoblot analysis of CenpF immunoprecipitates from HCT-116 cells untreated or treated with KG5. Data are representative of three independent experiments. FIG. 46(e) Confocal microscopy images of XPA-1 cell at prophase (upper panel), pro-metaphase control untreated (middle panel) or treated with KG5 (lower panel). Cells were stained for phospho-T210 Plk1 (in green), a tubulin (in red) and DNA (TOPRO-3™ in blue). […]
Plk1 enzymatic activity in cell lysates from WT, CRAF−/− MEFs, HCT-116 cells expressing WT or S338D CRAF and HCT-116 cells treated with the allosteric RAF inhibitor KG5 was determined using the Plk1 kinase kit from MBL and following the manufacturer's protocol.

T1 sequence (P04049 whole entry): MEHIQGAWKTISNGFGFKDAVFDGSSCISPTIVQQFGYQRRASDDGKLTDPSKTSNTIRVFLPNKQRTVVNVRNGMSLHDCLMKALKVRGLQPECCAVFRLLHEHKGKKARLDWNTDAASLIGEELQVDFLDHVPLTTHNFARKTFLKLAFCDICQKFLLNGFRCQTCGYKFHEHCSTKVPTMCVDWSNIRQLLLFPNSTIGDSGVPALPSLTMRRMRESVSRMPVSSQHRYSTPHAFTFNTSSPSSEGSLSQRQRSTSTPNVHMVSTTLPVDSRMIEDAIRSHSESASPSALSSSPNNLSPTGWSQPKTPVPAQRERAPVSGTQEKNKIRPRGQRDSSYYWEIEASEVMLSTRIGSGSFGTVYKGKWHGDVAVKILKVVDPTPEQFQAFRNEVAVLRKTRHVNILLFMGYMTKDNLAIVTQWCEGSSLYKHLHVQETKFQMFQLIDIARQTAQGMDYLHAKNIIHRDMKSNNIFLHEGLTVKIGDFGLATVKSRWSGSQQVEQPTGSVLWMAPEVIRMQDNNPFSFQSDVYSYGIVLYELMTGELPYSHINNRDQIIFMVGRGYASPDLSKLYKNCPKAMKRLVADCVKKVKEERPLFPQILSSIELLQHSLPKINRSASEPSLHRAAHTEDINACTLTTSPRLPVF

Consider `CSc1nc(N)cc(Oc2ccc(-c3nnc(Nc4cccc(C(F)(F)F)c4)[nH]3)cc2)n1` [KG5], for which, in experiment [1], the “phospho-S338 CRAF in orthotopic brain tumor tissues” value is listed as “qualitative decrease in phospho-5338 RAF”. Also, the Plk1 activity entry in experiment [2] is “decreased Plk1 activity”.

(Values after patent publication US20130266636A1, “METHODS FOR BLOCKING CELL PROLIFERATION AND TREATING DISEASES AND CONDITIONS RESPONSIVE TO CELL GROWTH INHIBITION” (THE REGENTS OF THE UNIVERSITY OF CALIFORNIA, priority 2010, published 2013).)
